Experimental data: ChEMBL document CHEMBL4732257, “The optimization and characterization of functionalized sulfonamides derived from sulfaphenazole against Mycobacterium tuberculosis with reduced CYP 2C9 inhibition” (Bioorg Med Chem Lett, 2021)
In brackets after ≈: the same amount, converted by molar mass.

Test system: Mycobacterium tuberculosis
Assay: Antitubercular activity against isoniazid,streptomycin,rifampicin,ethambutol,para-aminosalicylate,prothionamide,capreomycin-resistant Mycobacterium tuberculosis 14862 assessed as bacterial growth inhibition
Format: functional

Row | Structure (SMILES) | MIC [µg/mL]
1 | Nc1ccc(S(=O)(=O)Nc2ccnn2-c2ccccc2)cc1 [SULFAPHENAZOLE] | 12.6 (≈ 40 µM)
2 | NNC(=O)c1ccncc1 [ISONIAZID] | > 10
3 | COc1ccc(-n2nccc2NS(=O)(=O)c2ccc(N)cc2)cc1 | 10.6 (≈ 30.8 µM)
4 | Nc1ccc(S(=O)(=O)Nc2ccnn2-c2ccc(F)cc2)cc1 | 10.9 (≈ 32.7 µM)
5 | Cc1ccc(-n2nccc2NS(=O)(=O)c2ccc(N)cc2)cc1 | 11.9 (≈ 36.3 µM)
